{"source": "patent US20250243180A1", "about": "“TARGETED PROTEIN DEGRADATION” (Monte Rosa Therapeutics AG, priority 2023, published 2025)", "tested_on": "New Zealand White rabbits, MSU crystal gout model", "assay": "In vivo rabbit gout model (intra-articular MSU): joint swelling and CD31 staining", "details": "daily prophylactic treatment", "experimental": "MSU crystals were prepared by dissolving uric acid (Aladdin, cat #U105582) in boiling water (1 g in 200 mL with 6 mL of 1 N NaOH). PH value was adjusted to 7.2 by HCl. The solution was stirred and cooled to room temperature and stored at 4° C. overnight. The precipitate was filtered with filter paper and dried under low heat to obtain MSU crystals. New Zealand White rabbits received an intra-articular injection of 1 mL of MSU crystals (50 mg/mL) into both knees (MSU group) or PBS (as vehicle, control group). n=10 for MSU groups; n=6 for PBS group.\nFor immunohistochemistry, bone sections were stained with anti-CD31 (Abcam #ab9498) diluted at 1:500. The nuclei were stained with hematoxylin. Slides were scanned using LEICA Aperio GT450 at 400× magnification. The number of positive blood vessels were counted blindly.\n(a) To determine NEK7 degradation, spleens and peripheral blood mononuclear cells (PBMC) were analyzed by JESS for NEK7 and normalized to α-Tubulin from five representative animals. (b) The degree of joint swelling was determined by caliper measurements at the indicated time points. (c) Rabbit bone tissue sections were stained and quantified for anti-CD31 immunohistochemistry. Results expressed as mean±SEM. Statistical analysis was performed using two-way ANOVA. The difference was considered significant when p<0.05."}
{"smiles": "CC(C)(C(=O)NCc1cc(Cl)c(C2CCC(=O)NC2=O)c(Cl)c1)c1ncc(C#N)cn1", "note": "(centres unmarked) [Compound 16, 2-(5-cyanopyrimidin-2-yl)-N-(3,5-dichloro-4-(2,6-dioxopiperidin-3-yl)benzyl)-2-methyl-propanamide]", "values": [{"measurement": "CD31 staining in bone tissue", "value": "improvement"}, {"measurement": "joint swelling induced by intra-articular MSU injection", "value": "improvement"}]}
